This note sets out measurements from PubChem BioAssay (NCI).

Test systems include BT-549 breast; COLO 205 colon; MOLT-4 leukemia; NCI-H226 lung; NCI-H522 lung; OVCAR-3 ovarian; OVCAR-4 ovarian; SF-268 CNS; SF-295 CNS; SF-539 CNS; SN12C renal; SW-620 colon.
Experiment in all cases: NCI anticancer screen, dose series, 48 h

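1) Cells in 96-well plates. 2) Compound, 48 h, 5 concentrations. 3) Linear interpolation between surrounding doses. 4) Unreached endpoint = highest concentration. TGI denotes the concentration required for complete inhibition of growth.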 Bounds are passed on as bounds.

Regarding `Cn1c(N2CCCC2)c(C=O)c(=O)n(C)c1=O`, the TGI in the assay with BT-549 breast, in the assay with COLO 205 colon, in the assay on MOLT-4 leukemia, with NCI-H226 lung, in the assay with NCI-H522 lung and with OVCAR-3 ovarian was above 100 µM in each case. In addition, the TGI in the assay with OVCAR-4 ovarian, in the assay with SF-268 CNS, with SF-295 CNS, in the assay on SF-539 CNS, in the assay on SN12C renal and in the assay with SW-620 colon was above 100 µM each time.
`COc1ccc(-c2cc(-c3ccc(Nc4ccnc5cc(C(F)(F)F)ccc45)cc3)[nH]c(=O)c2C#N)c2ccccc12`: the TGI is above 100 µM with BT-549 breast; above 58.4 µM with COLO 205 colon; above 100 µM in the assay on MOLT-4 leukemia; above 100 µM in the assay with NCI-H226 lung; above 100 µM in the assay with NCI-H522 lung; above 100 µM in the assay with OVCAR-3 ovarian. The TGI is above 100 µM in the assay on OVCAR-4 ovarian; above 100 µM in the assay on SF-268 CNS; above 100 µM in the assay on SF-295 CNS; above 53.7 µM with SF-539 CNS; above 100 µM in the assay on SN12C renal; above 100 µM in the assay with SW-620 colon.
Consider `COc1ccc(CNc2nc(NCc3ccc(OC)cc3)nc(Nc3ccccc3)n2)cc1`, for which the TGI with BT-549 breast was above 100 µM; in the assay on COLO 205 colon it was above 100 µM; in the assay with MOLT-4 leukemia, above 100 µM; in the assay with NCI-H226 lung, above 100 µM; in the assay on NCI-H522 lung it was above 100 µM; in the assay with OVCAR-3 ovarian it was 6.94 µM. In addition, the TGI in the assay with OVCAR-4 ovarian was above 100 µM; in the assay with SF-268 CNS, above 100 µM; in the assay on SF-295 CNS, 8.83 µM; with SF-539 CNS, above 100 µM; with SN12C renal, above 100 µM; in the assay on SW-620 colon, above 100 µM.
